Source: patent US11578069B2, “Compounds for inhibition of α4 β7 integrin” (Gilead Sciences, Inc., priority 2019, dated 2023)

Assays:
[1] = molecular target: T1, α4β1 integrin (Homo sapiens, UniProt P05556+P13612); test: α4β1 Cell Capture Assay; assay type: cell-based; details: capture of α4β1 expressing Jurkat cells on VCAM-1 extracellular domain-coated plate
T1 construct: monitoring the capture of α4β1 expressing cells; endogenous in cells; host or cells: Jurkat
Method in brief: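 Jurkat cells in DMEM with 0.5% FBS and 0.5 mM MnCl2 preincubated 1 h at 37° C with compound, then allowed 30 min at 37° C to bind plates coated with recombinant VCAM-1 extracellular domain (0.5 μg/ml). After glutaraldehyde fixation and Hoechst staining, bound cells counted by imaging; EC50 from concentration–response.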

[2] = molecular target: T2, α4β7 integrin (Homo sapiens, UniProt P13612+P26010); test: α4β7 Integrin Cell Capture Assay; assay type: cell-based; details: capture of α4β7 integrin expressing RPM18866 cells on MadCAM-1 extracellular domain-coated plate
T2 construct: monitoring the capture of α4β7 integrin expressing cells; endogenous in cells; host or cells: RPMI8866
T2 sequence (P13612 34-1032): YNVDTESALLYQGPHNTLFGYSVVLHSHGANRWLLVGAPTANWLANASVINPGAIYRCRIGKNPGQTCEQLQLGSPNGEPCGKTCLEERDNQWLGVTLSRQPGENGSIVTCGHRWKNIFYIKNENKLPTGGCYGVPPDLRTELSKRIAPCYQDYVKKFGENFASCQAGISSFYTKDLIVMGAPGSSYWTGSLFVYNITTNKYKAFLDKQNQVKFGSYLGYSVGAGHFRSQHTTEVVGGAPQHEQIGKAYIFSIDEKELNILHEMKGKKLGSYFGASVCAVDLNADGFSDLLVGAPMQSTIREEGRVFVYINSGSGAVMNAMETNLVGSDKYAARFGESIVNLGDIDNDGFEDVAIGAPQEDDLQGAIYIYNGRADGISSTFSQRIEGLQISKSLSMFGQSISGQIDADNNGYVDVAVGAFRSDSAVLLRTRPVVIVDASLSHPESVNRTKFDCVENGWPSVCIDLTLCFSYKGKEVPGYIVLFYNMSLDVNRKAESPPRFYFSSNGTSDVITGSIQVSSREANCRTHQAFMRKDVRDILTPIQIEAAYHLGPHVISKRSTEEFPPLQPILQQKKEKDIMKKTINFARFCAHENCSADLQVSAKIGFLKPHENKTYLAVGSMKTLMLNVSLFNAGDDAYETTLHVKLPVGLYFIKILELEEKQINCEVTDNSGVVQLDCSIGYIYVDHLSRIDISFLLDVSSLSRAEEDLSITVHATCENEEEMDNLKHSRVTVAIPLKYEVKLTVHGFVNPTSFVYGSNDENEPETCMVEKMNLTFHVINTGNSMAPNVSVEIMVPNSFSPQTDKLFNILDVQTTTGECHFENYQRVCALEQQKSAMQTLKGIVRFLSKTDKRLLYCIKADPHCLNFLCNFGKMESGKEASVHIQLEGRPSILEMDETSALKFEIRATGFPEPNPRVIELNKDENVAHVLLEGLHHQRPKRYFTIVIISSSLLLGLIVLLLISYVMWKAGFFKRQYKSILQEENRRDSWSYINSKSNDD
T2 sequence (P26010 20-798): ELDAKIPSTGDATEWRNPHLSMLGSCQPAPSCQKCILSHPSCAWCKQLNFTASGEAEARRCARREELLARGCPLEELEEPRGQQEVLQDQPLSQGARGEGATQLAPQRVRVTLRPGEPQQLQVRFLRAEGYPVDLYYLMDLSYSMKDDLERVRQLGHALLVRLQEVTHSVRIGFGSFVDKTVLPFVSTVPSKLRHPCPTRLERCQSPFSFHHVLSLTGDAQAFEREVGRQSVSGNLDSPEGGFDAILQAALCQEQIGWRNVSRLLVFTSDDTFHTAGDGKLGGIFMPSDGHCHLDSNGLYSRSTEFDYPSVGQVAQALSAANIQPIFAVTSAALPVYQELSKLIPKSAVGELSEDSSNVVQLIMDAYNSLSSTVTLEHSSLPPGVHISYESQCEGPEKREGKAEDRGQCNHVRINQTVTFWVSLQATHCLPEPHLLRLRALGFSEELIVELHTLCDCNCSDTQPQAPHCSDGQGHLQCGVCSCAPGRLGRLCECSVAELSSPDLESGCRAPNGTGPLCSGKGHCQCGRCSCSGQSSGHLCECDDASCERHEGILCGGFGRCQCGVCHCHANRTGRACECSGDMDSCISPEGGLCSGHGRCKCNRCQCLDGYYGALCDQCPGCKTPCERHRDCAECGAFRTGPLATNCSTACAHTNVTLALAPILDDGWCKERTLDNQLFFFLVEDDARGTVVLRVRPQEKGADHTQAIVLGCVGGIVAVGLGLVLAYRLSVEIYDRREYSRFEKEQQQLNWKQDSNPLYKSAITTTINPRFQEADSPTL
Method in brief: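 RPM18866 cells were preincubated with compound for 1 h at 37 °C in DMEM with 0.5% FBS and 0.5 mM MnCl2. They were then allowed to adhere for 30 min at 37 °C to BSA-blocked plates coated with MAdCAM-1 extracellular domain (1.0 µg/mL). After glutaraldehyde/Hoechst fixation and washing, bound cells were counted by imaging, and EC50 was fitted from counts versus concentration.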

T1 sequence (P05556 21-798, one chain of several): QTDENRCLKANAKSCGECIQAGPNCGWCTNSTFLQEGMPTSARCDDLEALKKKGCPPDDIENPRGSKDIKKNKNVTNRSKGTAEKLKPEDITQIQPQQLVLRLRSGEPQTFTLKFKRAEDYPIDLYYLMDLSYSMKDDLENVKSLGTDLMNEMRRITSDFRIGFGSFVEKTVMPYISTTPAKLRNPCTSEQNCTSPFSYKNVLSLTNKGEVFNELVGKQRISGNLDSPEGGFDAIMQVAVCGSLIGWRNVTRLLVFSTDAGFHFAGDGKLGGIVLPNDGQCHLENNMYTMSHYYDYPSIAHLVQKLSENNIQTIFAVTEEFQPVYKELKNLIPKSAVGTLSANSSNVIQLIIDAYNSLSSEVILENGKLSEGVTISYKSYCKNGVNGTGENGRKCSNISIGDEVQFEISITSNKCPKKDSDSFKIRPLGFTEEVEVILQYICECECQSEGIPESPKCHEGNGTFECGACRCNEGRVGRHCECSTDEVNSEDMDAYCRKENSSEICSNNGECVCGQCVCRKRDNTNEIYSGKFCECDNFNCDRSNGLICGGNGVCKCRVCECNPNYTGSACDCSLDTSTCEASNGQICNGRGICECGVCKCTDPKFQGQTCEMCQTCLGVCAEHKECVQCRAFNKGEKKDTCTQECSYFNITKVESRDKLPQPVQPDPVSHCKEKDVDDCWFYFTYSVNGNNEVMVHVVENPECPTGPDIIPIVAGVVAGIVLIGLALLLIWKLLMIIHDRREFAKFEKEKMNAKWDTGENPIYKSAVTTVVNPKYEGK

Structure (SMILES)	EC50 ([1]; Table 1) [nM]	EC50 ([2]; Table 1) [nM]	EC50 ([1]; Table 2) [nM]	EC50 ([2]; Table 2) [nM]
Cc1cc(N2CCOC[C@@H]2C(F)(F)F)cc(F)c1C(=O)N[C@@H](Cc1ccc(-n2c(=O)c3c(n(C)c2=O)CCOC3)nc1)C(=O)O [Example 68, (S)-2-(2-fluoro-6-methyl-4-((R)-3-(trifluoromethyl)morpholino)benzamido)-3-(6-(1-methyl-2,4-dioxo-1,5,7,8-tetrahydro-2H-pyrano[4,3-d]pyrimidin-3(4H)-yl)pyridin-3-yl)propanoic acid]	14.9	0.3		
Cc1cc(N2CCOC[C@@H]2CC(F)F)cc(F)c1C(=O)N[C@@H](Cc1ccc(-n2c(=O)c3ccncc3n(C)c2=O)nc1)C(=O)O [Example 69, (S)-2-(4-((S)-3-(2,2-difluoroethyl)morpholino)-2-fluoro-6-methylbenzamido)-3-(6-(1-methyl-2,4-dioxo-1,4-dihydropyrido[3,4-d]pyrimidin-3(2H)-yl)pyridin-3-yl)propanoic acid]	20.8	0.2		
Cc1cc(N2CCOC[C@@H]2CC(F)F)cc(F)c1C(=O)N[C@@H](Cc1ccc(-n2c(=O)c3c(n(C)c2=O)COC3)cc1)C(=O)O [Example 70, (S)-2-(4-((S)-3-(2,2-difluoroethyl)morpholino)-2-fluoro-6-methylbenzamido)-3-(4-(1-methyl-2,4-dioxo-1,2,5,7-tetrahydrofuro[3,4-d]pyrimidin-3(4H)-yl)phenyl)propanoic acid]	2.4	3.9		
Cc1cc(N2CCOC[C@@H]2C(F)(F)F)cc(F)c1C(=O)N[C@@H](Cc1ccc(-n2c(=O)c3cc(C#N)ccc3n(C)c2=O)nc1)C(=O)O [Example 74]			5.2	0.14
Cc1cc(N2CCOC[C@H]2CC(F)F)cc(F)c1C(=O)N[C@@H](Cc1ccc(-n2c(=O)c3ccncc3n(C)c2=O)nc1)C(=O)O [Example 85]			17.9	3.9
Cc1cc(N2CCOC[C@H]2CC(F)(F)F)cc(F)c1C(=O)N[C@@H](Cc1ccc(-n2c(=O)c3ccncc3n(C)c2=O)nc1)C(=O)O [Example 86]			46.1	4.2
Cc1cc(N2CCOC[C@@H]2CC(F)(F)F)cc(F)c1C(=O)N[C@@H](Cc1ccc(-n2c(=O)c3ccncc3n(C)c2=O)nc1)C(=O)O [Example 87]			19.7	0.9

The next lines start with the values.

EC50 ([1]; Table 1) [nM]	EC50 ([2]; Table 1) [nM]	EC50 ([1]; Table 2) [nM]	EC50 ([2]; Table 2) [nM]	Structure (SMILES)
		4	0.18	Cc1cc(N2CCOC[C@@H]2C(F)(F)F)cc(F)c1C(=O)N[C@@H](Cc1ccc(-n2c(=O)c3c(C#N)cccc3n(C)c2=O)nc1)C(=O)O [Example 72]
		4.9	0.16	Cc1cc(N2CCOC[C@@H]2C(F)(F)F)cc(F)c1C(=O)N[C@@H](Cc1ccc(-n2c(=O)c3ccc(C#N)cc3n(C)c2=O)nc1)C(=O)O [Example 76]
		3.4	0.16	COc1cnc2c(=O)n(-c3ccc(C[C@H](NC(=O)c4c(C)cc(N5CCOC[C@@H]5C(F)(F)F)cc4F)C(=O)O)cn3)c(=O)n(C)c2c1 [Example 78]
		2.1	0.06	Cc1cc(N2CCOC[C@@H]2C(F)(F)F)cc(F)c1C(=O)N[C@@H](Cc1cc(F)c(-n2c(=O)c3ccncc3n(C)c2=O)c(F)c1)C(=O)O [Example 80]
		4.5	0.15	Cn1c(=O)n(-c2c(F)cc(C[C@H](NC(=O)c3c(F)cc(N4CCOC[C@@H]4C(F)(F)F)cc3F)C(=O)O)cc2F)c(=O)c2ccncc21 [Example 82]
		1.7	0.05	Cc1cc(N2CCOC[C@@H]2C(F)(F)F)cc(F)c1C(=O)N[C@@H](Cc1ccc(-n2c(=O)c3ccncc3n(C)c2=O)c(F)c1)C(=O)O [Example 84]
